What was measured:
Experiment in all cases: MIC, microdilution method in broth, in comparison with teicoplanin
Type in all cases: cell-based
[1] = test system: two strains of S. aureus and S. epidermidis showing low sensitivity to teicoplanin; conditions: Iso-Sensitest broth, 18-24 hours at 37°C
Procedure: (§1) The antimicrobial activity, expressed as minimal inhibitory concentration (MIC), of the hexapeptide of formula (I), R = hydrogen, against selected strains of Gram-positive bacteria was determined in comparison with teicoplanin. The microdilution method in Difco Todd-Hewitt broth (Streptococci) or Oxoid Iso-Sensitest broth (Staphylococci) was used.

[2] = test system: Staphylococci and Streptococci; conditions: relative to teicoplanin; inoculum about 10^5 cfu/ml, 18-24 hours at 37°C
Procedure: as §1

[3] = test system: S. epidermidis and S. haemolyticus, two species of Coagulase-Negative Staphylococci (CNS); conditions: relative to teicoplanin; Iso-Sensitest broth, inoculum about 10^5 cfu/ml, 18-24 hours at 37°C
Procedure: as §1

In the case of aglucoteicoplanin hexapeptide, the “antimicrobial activity (MIC), fold relative to teicoplanin” value [1] is reported as “four to sixteen times more active”, the “antimicrobial activity, expressed as minimal inhibitory concentration (MIC)” value [2] is reported as “generally less active than teicoplanin” and the “antimicrobial activity, expressed as minimal inhibitory concentration (MIC)” value [3] is reported as “same degree of activity”.

— patent EP0563062B1, “HEXAPEPTIDES DERIVING FROM AGLUCOTEICOPLANIN AND A PROCESS FOR PREPARING THEM” (GRUPPO LEPETIT S.p.A., priority 1990, dated 1992)
